Reference: PMC6934184, “Selective DNA-PKcs inhibition extends the therapeutic index of localized radiotherapy and chemotherapy” (The Journal of Clinical Investigation, 2019)

System: orthotopic Calu-6 lung tumors
Experiment: orthotopic Calu-6 lung tumor with thoracic radiation, bioluminescent imaging
Assay type: in vivo
Conditions: single dose 30 mg/kg + 10 Gy thoracic radiation
Description: Orthotopic lung xenografts were generated following a published protocol ([54]) with minor modifications. Briefly, CD-1 nude mice (Charles River Laboratories) were anesthetized with 2% isoflurane and placed in the right lateral decubitus position. Luciferase-expressing Calu-6 cells (1 × 10^6) in 50 μL of 50% (vol/vol) Matrigel were injected into the left lateral thorax at the lateral dorsal axillary line, 1.5 cm above the lower rib line. The needle was advanced 5 mm into the thorax. After injection, the mouse was turned to the left lateral decubitus position for 5 minutes. […]
NSCLC subcutaneous xenografts were generated as previously described ( 53). […] Mouse weights and tumor volumes (1/2 x length x width x depth) were measured three times a week.
Targeted radiotherapy in subcutaneous and orthotopic NSCLC xenograft models When subcutaneous xenografts reached 100 mm3, mice were randomized into four groups (n = 7 - 11/group): (i) N-Methyl-2-pyrrolidone (NMP): 30% Encapsin : PEG400 (1:6:3 v/v/v) vehicle p.o. 30 minutes prior to mock radiation. […] The remaining mice were monitored for tumor growth until the sizes of tumo rs reached 400 mm 3 or up to 38 days after initiation of […]
Tumor growth in the remaining mice was monitored by bioluminescent imaging on days 0, 4, 8 and 15 post-treatment. […] Data were analyzed using LivingImage software (PerkinElmer). […]

CN(C(=O)CN1CCOCC1)c1ccc2sc3c(-c4cccc5c(=O)cc(N6CC7CCC(C6)O7)oc45)cccc3c2c1 [NU5455]
tolerability: well tolerated
antitumor effect of radiation (time to 4-fold increase in bioluminescent signal) (CD-1 nude mice): enhanced the antitumor effect of the radiation
